ChEMBL document CHEMBL1201862, “PubChem BioAssay data set” (2004)
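How tested: cells in 96-well plates exposed to compound for 48 hours at five concentrations. GI50 marks 50% less growth.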 The source made the active and inactive calls. Cut-off read from the data, not from the text of the source: active = GI50 up to about 1.1 µM and inactive = higher.

Assays:
Assay in all cases: inhibition of tumour cell growth, NCI panel, 48 h
NCI-H23 = system: NCI-H23
T47D = system: T47D
CCRF-CEM = system: CCRF-CEM
ACHN = system: ACHN
MDA-MB-435 = system: MDA-MB-435
NCI-H226 = system: NCI-H226
SR = system: SR
HOP-92 = system: HOP-92
UACC-257 = system: UACC-257
PC-3 = system: PC-3
A549 = system: A549
RPMI-8226 = system: RPMI-8226
SK-MEL-5 = system: SK-MEL-5
OVCAR-4 = system: OVCAR-4
DU-145 = system: DU-145
OVCAR-5 = system: OVCAR-5
OVCAR-3 = system: OVCAR-3
NCI/ADR-RES = system: NCI/ADR-RES
UACC-62 = system: UACC-62
A498 = system: A498

Measured: GI50

Nc1nc(Cl)cc(NCC2(CO)CCC2)n1
inactive: NCI-H23 > 100 µM | T47D 29.7 µM | CCRF-CEM > 100 µM | ACHN > 100 µM | MDA-MB-435 > 100 µM | NCI-H226 > 100 µM | SR > 100 µM | HOP-92 > 100 µM | UACC-257 > 10 µM | PC-3 > 100 µM | A549 > 100 µM | RPMI-8226 > 100 µM | SK-MEL-5 > 100 µM | OVCAR-4 > 100 µM | DU-145 > 100 µM | OVCAR-5 > 100 µM | OVCAR-3 > 100 µM | NCI/ADR-RES > 100 µM | UACC-62 99.3 µM

BrCCCCCOc1ccc(-c2c3ccccc3c(-c3ccc(OCCCCCBr)cc3)c3ccccc23)cc1
inactive: T47D > 100 µM | CCRF-CEM > 100 µM | ACHN > 100 µM | MDA-MB-435 > 100 µM | NCI-H226 > 100 µM | SR > 100 µM | UACC-257 > 100 µM | PC-3 > 100 µM | A549 > 100 µM | RPMI-8226 > 100 µM | SK-MEL-5 > 100 µM | OVCAR-4 > 100 µM | DU-145 > 100 µM | OVCAR-5 > 100 µM | NCI/ADR-RES > 100 µM | UACC-62 > 100 µM

N#Cc1c(O)c2ccccc2[nH]c1=O
inactive: NCI-H23 > 100 µM | T47D > 100 µM | CCRF-CEM > 100 µM | ACHN > 100 µM | MDA-MB-435 > 100 µM | NCI-H226 > 100 µM | HOP-92 > 100 µM | UACC-257 > 100 µM | PC-3 > 100 µM | A549 > 100 µM | RPMI-8226 > 100 µM | SK-MEL-5 > 100 µM | OVCAR-4 > 100 µM | DU-145 > 100 µM | OVCAR-5 > 100 µM | A498 > 100 µM | OVCAR-3 > 100 µM | NCI/ADR-RES > 100 µM | UACC-62 > 100 µM

C/C(=N\Nc1ccc([N+](=O)[O-])cc1[N+](=O)[O-])c1ccc2ccccc2n1
inactive: NCI-H23 > 100 µM | T47D > 100 µM | ACHN 42.8 µM | MDA-MB-435 > 100 µM | NCI-H226 88.1 µM | SR 97.9 µM | HOP-92 > 100 µM | UACC-257 > 100 µM | PC-3 > 100 µM | A549 57.5 µM | RPMI-8226 > 100 µM | SK-MEL-5 47.1 µM | DU-145 > 100 µM | OVCAR-5 > 100 µM | NCI/ADR-RES 46 µM | UACC-62 66.2 µM

Cc1cc(OCc2nnc3sc(NC(=O)c4ccccc4)nn23)ccc1Cl
inactive: NCI-H23 30.7 µM | T47D 44.4 µM | CCRF-CEM 43.3 µM | ACHN 20.5 µM | MDA-MB-435 22 µM | NCI-H226 > 100 µM | HOP-92 17.4 µM | UACC-257 37.7 µM | PC-3 33.7 µM | A549 33.1 µM | RPMI-8226 26.7 µM | SK-MEL-5 32.4 µM | OVCAR-4 > 100 µM | DU-145 24.4 µM | OVCAR-5 56.8 µM | A498 27.2 µM | OVCAR-3 30.7 µM | NCI/ADR-RES 37 µM | UACC-62 33.3 µM

CCC1C(c2cccc(OC)c2O)c2cc3c(cc2OC1N1CCCC1)OCO3 (stereo unspecified)
inactive: NCI-H23 26.4 µM | T47D 16.2 µM | CCRF-CEM 12.6 µM | ACHN 15 µM | MDA-MB-435 3.85 µM | SR 14.9 µM | UACC-257 17.8 µM | PC-3 16.6 µM | A549 17.4 µM | RPMI-8226 12.6 µM | SK-MEL-5 10.4 µM | DU-145 > 10 µM | OVCAR-5 20.1 µM | OVCAR-3 13.8 µM | NCI/ADR-RES 15.7 µM | UACC-62 17.5 µM

CC(=O)NCC1OC2COC(c3ccccc3)OC2C2N=C(c3ccccc3)OC12 (stereo unspecified)
inactive: NCI-H23 > 100 µM | T47D 19.1 µM | CCRF-CEM 35.4 µM | ACHN 45.5 µM | MDA-MB-435 85.3 µM | NCI-H226 67.5 µM | HOP-92 61.1 µM | UACC-257 57.5 µM | PC-3 24.9 µM | A549 37.8 µM | RPMI-8226 29.4 µM | SK-MEL-5 39.2 µM | OVCAR-4 85.9 µM | DU-145 > 100 µM | OVCAR-5 > 100 µM | A498 37.4 µM | OVCAR-3 76 µM | NCI/ADR-RES 42.5 µM | UACC-62 45.7 µM

O=c1oc2c(ccc3ccccc32)cc1C1=CSC2=NCCN12
inactive: NCI-H23 53.8 µM | T47D 30.5 µM | CCRF-CEM 30.5 µM | ACHN 35.2 µM | MDA-MB-435 53.3 µM | SR 34.4 µM | HOP-92 24.4 µM | UACC-257 56.1 µM | PC-3 71.4 µM | A549 27.1 µM | RPMI-8226 42.6 µM | SK-MEL-5 46.3 µM | OVCAR-4 44.5 µM | DU-145 26.5 µM | OVCAR-3 31.6 µM | NCI/ADR-RES 75.2 µM | UACC-62 > 100 µM

COC(=O)CNC(=O)c1cc(C)cc2c1Oc1c(cc(C)cc1C(=O)NCC(=O)OC)S2
inactive: NCI-H23 58.7 µM | T47D > 100 µM | CCRF-CEM 60.1 µM | ACHN 25.6 µM | MDA-MB-435 > 100 µM | NCI-H226 > 100 µM | SR 31 µM | HOP-92 22.3 µM | UACC-257 49.5 µM | PC-3 > 100 µM | A549 37.6 µM | RPMI-8226 40 µM | OVCAR-4 > 100 µM | DU-145 45.4 µM | OVCAR-5 > 100 µM | OVCAR-3 38.5 µM | NCI/ADR-RES > 100 µM | UACC-62 34.1 µM

CSc1nc2c(c(N(C)C)n1)C(O)n1c(nc3ccccc31)S2 (stereo unspecified)
inactive: NCI-H23 31.3 µM | T47D 38.1 µM | CCRF-CEM > 100 µM | ACHN > 83.9 µM | MDA-MB-435 > 100 µM | NCI-H226 > 100 µM | HOP-92 43.3 µM | UACC-257 > 100 µM | PC-3 > 100 µM | A549 > 71.9 µM | RPMI-8226 > 100 µM | SK-MEL-5 56.2 µM | OVCAR-4 4.95 µM | DU-145 69.7 µM | OVCAR-5 > 100 µM | A498 > 100 µM | OVCAR-3 29.2 µM | NCI/ADR-RES 37.8 µM | UACC-62 > 85.9 µM

O=[N+]([O-])c1cccc(-c2ncc3c(n2)-c2ccccc2C3)c1
inactive: NCI-H23 > 100 µM | T47D > 100 µM | CCRF-CEM > 100 µM | ACHN > 100 µM | MDA-MB-435 > 100 µM | NCI-H226 > 100 µM | SR > 100 µM | HOP-92 > 100 µM | UACC-257 > 100 µM | PC-3 > 100 µM | A549 > 100 µM | RPMI-8226 > 100 µM | SK-MEL-5 > 100 µM | OVCAR-4 > 100 µM | DU-145 > 100 µM | OVCAR-5 > 100 µM | NCI/ADR-RES > 100 µM | UACC-62 > 100 µM
